Tests used:
[1] = system: CT26 MDOTS; experiment: Bead-based cytokine profiling of MDOTS conditioned media; assay type: cell-based, murine; settings: Cmpd1 1 μM ± anti-PD-1 10 μg/mL
Procedure: (§1) Fresh tumor specimens (murine and human patients) were received in media (DMEM) on ice and minced in a 10 cm dish (on ice) using sterile forceps and scalpel. Minced tumor was resuspended in DMEM (4.5 mM glucose, […] sodium pyruvate, 1:100 penicillin-streptomycin) (Coming CellGro, Manassas, VA)+10% FBS (Gemini Bio-Products, West Sacramento, CA), 100 U/mL collagenase type IV (Life Technologies, Carlsbad, CA), and 15 mM HEPES (Life Technologies, Carlsbad, CA), except for CT26 tumors that were prepared in RPMI. Samples were pelleted and resuspended in 10-20 mL media. Red blood cells were removed from visibly bloody samples using RBC Lysis Buffer (Boston Bio-Products, Ashland, MA). […]
(§2) Two multiplex assays were performed utilizing a bead-based immunoassay approach, the Bio-Plex Pro™ Human Cytokine 40-plex Assay (Cat #171AK99MR2) and Bio-Plex Pro™ Mouse Cytokine Panel 1, 23-plex (Cat #M60009RDPD) on a Bio-plex 200 system (Cat #171000201). […] Fold changes relative to the MDOT/PDOT control were calculated and plotted as log 2FC. Lower and upper limits of quantitation (LLOQ/ULOQ) were imputed from standard curves for cytokines above or below detection. […]

[2] = system: B16F10 MDOTS; experiment: as above; assay type: cell-based, murine; settings: Cmpd1 1 μM ± αPD-1
Procedure: as §1, §2

[3] = system: CT26 allograft; experiment: In vivo Compound 1 combination treatment, allograft; parameters: species or system Balb/c mice; settings: Compound 1 40 mg/kg oral daily + anti-PD-L1 10 mg/kg every 5 days
Procedure: (§3) Combination studies were performed by vivoPharm (Hummelstown, PA, USA). All procedures used in the performance of these studies were carried out in accordance with vivoPharm's Standard Operating Procedures, with particular reference to US_SOPvP_EF0314 “General Procedures for Efficacy Studies.” CT26 colon carcinoma cells (1×10^6 cells/mouse in 100 μL, passage 2-3) were re-suspended in serum-free DMEM and implanted in the upper right flank of 11-12 week old female Balb/c mice (Charles River Laboratories). Mice were randomized into four groups of 10 using a matched pair distribution method based on tumor size for CT26. Treatment was initiated 12 days post-inoculation with mean tumor volume at start of dosing of 125.85 mm^3. Vehicle or Compound 1 (40 mg/kg) was administered by oral gavage daily for 26 days and isotype control or a reverse chimera anti-PD-L1 cloned from literature reports (e.g., Deng, R. et al. MAbs (2016), the content of which is incorporated herein by reference in entirety) and placed into a mouse IgG1 framework (10 mg/kg) was administered every 5 days for a total of six doses. Investigators were not blinded to treatment groups. […] Mice were scarified on Day 13 and lung metastases were quantified (small≤1 mm, medium>1 mm and ≤3 mm, large>3 mm). No large lung metastases were detected.

[4] = system: CT26 spheroids (lacking immune cells); experiment: Cytokine profiling of cell line spheroids lacking immune cells; assay type: cell-based, murine; settings: Day 1, 3, 6 vs vehicle
Procedure: as §1, §2

[5] = system: B16F10 lung metastases; experiment: B16F10 tail vein injection model, lung metastases; assay type: in vivo, mice; settings: Compound 1 40 mg/kg daily 13 days ± anti-PD-L1 10 mg/kg
Procedure: as §3

[6] = system: MC38 allograft; experiment: In vivo Compound 1 combination treatment, allograft; parameters: species or system B6 mice; settings: Cmpd1 + αPD-L1; not significant vs single-agent PD-L1

N#Cc1cc(-c2ncnc(Nc3ccc(N4CCN(C5COC5)CC4)cc3)n2)ccc1OC1CCOCC1 [Compound 1, 5-(4-((4-(4-(oxetan-3-yl)piperazin-1-yl)phenyl)amino)-1,3,5-triazin-2-yl)-2-((tetrahydro-2H-pyran-4-yl)oxy)benzonitrile]
levels of CCL4, CCL3, and IL-10 in CT26 MDOTS [1]: Decreased levels
G-CSF and related innate immune response cytokines in B16F10 MDOTS [2]: without concomitant induction
survival, CT26 allograft, combination vs Cmpd1 or anti-PD-L1 alone [3]: longer survival
tumour control, CT26 allograft, combination vs Cmpd1 or anti-PD-L1 alone [3]: greater tumour control
immune suppressive cytokine elaboration by CT26 cell line spheroids [4]: effectively blocked
sensitization of B16F10 tail vein injection model (lung metastases) [5]: could not be sensitized
in vivo survival, MC38 model, combination treatment [6]: enhanced
